The values that follow come from patent publication US5616684A, “Cyclic peptides and use thereof” (priority 1991, dated 1997).

For assay [1], the target named is T1, endothelin receptor A (ETA) (Sus scrofa, UniProt Q29010).
T1 construct: A membrane fraction prepared from the porcine heart; from tissue; host or cells: porcine heart membrane fraction
T1 sequence (Q29010 21-427): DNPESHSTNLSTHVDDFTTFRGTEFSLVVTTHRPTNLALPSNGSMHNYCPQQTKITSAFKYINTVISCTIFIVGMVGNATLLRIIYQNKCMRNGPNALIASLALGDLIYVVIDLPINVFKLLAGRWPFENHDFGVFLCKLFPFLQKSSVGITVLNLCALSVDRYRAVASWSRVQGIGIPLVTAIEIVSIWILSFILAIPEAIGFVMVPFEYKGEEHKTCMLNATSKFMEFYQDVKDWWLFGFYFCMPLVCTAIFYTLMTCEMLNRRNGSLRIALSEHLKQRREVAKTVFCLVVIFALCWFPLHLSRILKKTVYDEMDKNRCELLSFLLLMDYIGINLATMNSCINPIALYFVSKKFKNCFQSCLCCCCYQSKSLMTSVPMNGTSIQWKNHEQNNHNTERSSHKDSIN
Briefly: Assay of Affinity for Receptor (1): Binding Activity on ETA Receptor. More on the design: key to Binding Activity on ET Receptor (R. act.) ETA: relative binding activity; reference cyclic pentapeptide = 1.0. To be noted: porcine heart membrane fraction; for Binding Activity on ET Receptor (R. act.) ETA: specific activity, binding activity of cyclo[-D-Glu-Ala-D-aIle-Leu-D-Trp-] taken as 1.0, 125I-labeled endothelin-1, 25° C., 1 hour. As to the method: Assay of Affinity for Receptor (1) . . . Binding Activity on ETA Receptor
A membrane fraction prepared from the porcine heart was diluted to 0.15 mg/ml by using a buffer solution for assay, and 100 μl of the resulting suspension of the membrane fraction was poured into each assay tube to use for assay. To this suspension of the membrane fraction was added 2 μl of 5 nM ^125 I-labeled endothelin-1 solution. Further, 3 μl of a test peptide solution was added thereto, followed by incubation at a temperature of 25° C. for 1 hour. Then, the resulting suspension was diluted with 900 μl of the buffer solution for assay cooled with ice, and thereafter separated into a supernatant and a precipitate by centrifugation at 12,000×g for 10 minutes. Cell membranes and an endothelin receptor A (ETA) embedded therein were contained in the precipitate, and radioactive iodine-labeled endothelin combined with the receptor was also recovered in the precipitate. Accordingly, the amount of radioactive iodine-labeled endothelin combined with the endothelin receptor A (ETA) was determined by measuring the amount of radioactive iodine contained in the precipitate with a gamma-ray counter. The cyclic pentapeptide described in Japanese Patent Application No. 2-413828/1990, cyclo[-D-Glu-Ala-D-aIle-Leu-D-Trp-], was used as a control compound. The numerical value of ETA shown in Table 1 is the value of specific activity, taking the binding activity of this cyclic pentapeptide on the receptor A as 1.0. The binding activity (IC50) of this cyclic pentapeptide on the ETA receptor is 2×10^-6 M.

In assay [2] the target is T2, endothelin receptor B (ETB) (Bos taurus, UniProt P28088).
T2 construct: A membrane fraction prepared from the bovine brain; from tissue; host or cells: bovine brain membrane fraction
T2 sequence (P28088 27-441): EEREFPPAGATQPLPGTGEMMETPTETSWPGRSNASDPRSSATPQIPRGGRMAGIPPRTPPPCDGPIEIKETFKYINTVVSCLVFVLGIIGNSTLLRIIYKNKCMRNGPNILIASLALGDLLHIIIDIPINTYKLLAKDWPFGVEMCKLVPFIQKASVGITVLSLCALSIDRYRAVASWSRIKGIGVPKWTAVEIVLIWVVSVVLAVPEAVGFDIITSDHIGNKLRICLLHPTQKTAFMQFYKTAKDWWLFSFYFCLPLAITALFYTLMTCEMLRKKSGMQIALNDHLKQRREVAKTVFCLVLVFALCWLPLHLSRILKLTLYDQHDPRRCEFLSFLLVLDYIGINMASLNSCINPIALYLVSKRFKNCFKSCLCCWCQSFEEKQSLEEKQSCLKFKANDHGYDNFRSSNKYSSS
Briefly: Assay of Affinity for Receptor (2): Binding Activity on ETB Receptor *1. Further details: key: relative specific activity, Example 8 compound = 100. To be noted: specific activity, binding activity of the compound of Example 8 taken as 100; bovine brain membrane fraction, 125I labeled endothelin-1, 25° C., 1 hour. As to the method: Assay of Affinity for Receptor (2) . . . Binding Activity on ETB Receptor *1
A membrane fraction prepared from the bovine brain was diluted to 0.15 mg/ml by using a buffer solution for assay, and 100 μl of the resulting suspension of the membrane fraction was poured into each assay tube to use for assay. To this suspension of the membrane fraction was added 2 μl of 5 nM ^125 I labeled endothelin-1 solution. Further, 3 μl of a test peptide solution was added thereto, followed by incubation at a temperature of 25° C. for 1 hour. Then, the resulting suspension was diluted with 900 μl of the buffer solution for assay cooled with ice, and thereafter separated into a supernatant and a precipitate by centrifugation at 12,000×g for 10 minutes. Cell membranes and an endothelin receptor B (ETB) embedded therein were contained in the precipitate, and radioactive iodine-labeled endothelin bound to the receptor was also recovered in the precipitate. Accordingly, the amount of radioactive iodine-labeled endothelin bound to the endothelin receptor B (ETB) was determined by measuring the amount of radioactive iodine contained in the precipitate with a gamma-ray counter. The numerical value of ETB shown in Table 1 is the value of specific activity, taking the binding activity of the compound of Example 8 on the receptor B as 100.

The subject of assay [3] is ETB receptor (guinea pig kidney crude receptor membrane fraction). Briefly: ETB Radio Receptor Assay *2. The format is binding. To be noted: relative activity (Example 8 given as 100), 125I-endothelin-1, 37° C., 90 minutes. Here is the method: ETB Radio Receptor Assay *2
In the endothelin radio receptor assay, guinea pigs' kidneys were used. Guinea pigs (Std Hartrey, male 250 g, Japan SLC Ltd.) were made to have a cerebral concussion and sacrificed by bleeding from carotid arteries to pick up the kidneys and removed fat therefrom to prepare the kidneys. The obtained kidneys were sliced and homogenized by politron homogenizer in 20 ml of 50 mM Tris-HCl buffer [pH 7.4; 20 mM NaHCO3, 0.1 mM PMSF (Phenylmethylsulfonyl Fluoride), 1 mM EDTA (Ethylenediaminetetraacetic acid)] per one kidney. The homogenized kidney was applied to a centrifugation at 1,000×g for 15 minutes and the supernatant was further applied to a centrifugation for 20 minutes at 30,000×g. The resulting precipitate was twice washed with 50 mM Tris-HCl buffer (pH 7.4) containing 0.1 mM PMSF, 1 mM EDTA. The resultant was stored at -80 ° C. as a crude receptor membrane fraction and was used as the suspension in the following buffer when necessary.
740 Bq of ^125 I-endothelin-1 (81.4 TBq/mmol, Du Pont, USA) as a radio ligand, the crude membrane fraction (2.1 μg protein) and samples were added to the following buffer. The reaction was performed at 37° C., for 90 minutes in 0.2 ml of the buffer [50 mM Tris-HCl buffer (pH 7.4) containing 0.1 mM PMSF, 1 mM EDTA, 0.2% bovine serum albumin].
The reaction was stopped by fast filtration on a glass filter (GF/B, Wattman, USA) by Cell Harvestor (290 PHD, Cambridge-Technology, Great Britain), and the filter was three times washed with 50 mM Tris-HCl buffer (pH 7.4). Radio activity remained on the filter was assayed by a gamma counter.

pIC50: −log10 of the molar value. Non-standard residues stand in square brackets, D forms with d. Residues, ends and D or L forms follow the SMILES beside them. d(aIle) = CC[C@H](C)[C@@H](N)C(=O)O; Hyp = O=C(O)[C@@H]1C[C@@H](O)CN1; Pip = O=C(O)[C@@H]1CCCCN1; Aze = O=C(O)[C@@H]1CCN1

Turning to `CC[C@H](C)[C@H]1NC(=O)[C@H](C)NC(=O)[C@@H](CCC(=O)O)NC(=O)[C@@H](Cc2c[nH]c3ccccc23)NC(=O)[C@H](CC(C)C)NC1=O` [cyclo[-D-Glu-Ala-D-aIle-Leu-D-Trp-], reference compound] (cyclo(A[d(aIle)]L[dW][dE])), the negative-log IC50 (pIC50) (in general, the IC50 on a negative log10 scale, so that one unit is a factor of ten) in assay [1] (125I-labeled endothelin-1) was 5.70. Besides, in assay [1], the “Binding Activity on ET Receptor (R. act.) ETA” value amounted to 1.0. The “Binding Activity on ET Receptor (R. act.) ET8 *1” value in assay [2] is on record as “less than 1”.

Take `CC(C)C[C@@H]1NC(=O)[C@@H](CC(C)C)NC(=O)[C@H](CCC(=O)O)NC(=O)[C@H](Cc2c[nH]c3ccccc23)NC(=O)[C@@H](CC(=O)O)NC(=O)[C@@H](Cc2c[nH]c3ccccc23)NC1=O` [Example 34, Cyclo[--D--Asp--Trp--Glu--D--Leu--Leu--D--Trp--]] (cyclo(E[dL]L[dW][dD]W)): in assay [1], the “Binding Activity on ET Receptor (R. act.) ETA” value is 20. In addition, the “Binding Activity on ET Receptor (R. act.) ET8 *1” value in assay [2] is given as 77. The “Binding Activity on ET Receptor (R. act.) ET8 *2” value in assay [3] was 44.

Turning to `CC(C)C[C@@H]1NC(=O)[C@@H](CC(C)C)NC(=O)[C@H](CC(=O)O)NC(=O)[C@@H]2CCN2C(=O)[C@@H](CC(=O)O)NC(=O)[C@@H](Cc2c[nH]c3ccccc23)NC1=O` [Example 25, Cyclo[--D--Asp--Azc--Asp--D--Leu--Leu--D--Trp--]] (cyclo([Aze]D[dL]L[dW][dD])), the “Binding Activity on ET Receptor (R. act.) ETA” value in assay [1] is reported as 30. The “Binding Activity on ET Receptor (R. act.) ET8 *1” value in assay [2] turned out to be 25. Besides, the “Binding Activity on ET Receptor (R. act.) ET8 *2” value in assay [3] worked out at 57.

With `CC(C)C[C@@H]1NC(=O)[C@@H](CC(C)C)NC(=O)[C@@H]2CCCN2C(=O)[C@H](Cc2c[nH]c3ccccc23)NC(=O)[C@@H](CC(=O)O)NC(=O)[C@@H](Cc2c[nH]c3ccccc23)NC1=O` [Example 36, Cyclo[--D--Asp--Trp--Pro--D--Leu--Leu--D--Trp--]] (cyclo(L[dW][dD]WP[dL])), the “Binding Activity on ET Receptor (R. act.) ETA” value in assay [1] was found to be 17. Further, in assay [2], the “Binding Activity on ET Receptor (R. act.) ET8 *1” value is recorded as 40. Moreover, the “Binding Activity on ET Receptor (R. act.) ET8 *2” value in assay [3] is 42.

For the compound `CC(C)C[C@@H]1NC(=O)[C@@H](CC(C)C)NC(=O)[C@H](CC(=O)O)NC(=O)[C@H](CC(=O)O)NC(=O)[C@@H](CC(=O)O)NC(=O)[C@@H](Cc2c[nH]c3ccccc23)NC1=O` [Example 16, Cyclo[--D--Asp--Asp--Asp--D--Leu--Leu--D--Trp--]] (cyclo(DD[dL]L[dW][dD])), in assay [1], the “Binding Activity on ET Receptor (R. act.) ETA” value was determined as 10. Also, the “Binding Activity on ET Receptor (R. act.) ET8 *1” value in assay [2] turned out to be 14. For the same compound, the “Binding Activity on ET Receptor (R. act.) ET8 *2” value in assay [3] stood at 34.

With `CC(C)C[C@@H]1NC(=O)[C@@H](CC(C)C)NC(=O)[C@H](CC(=O)O)NC(=O)[C@@H]2C[C@@H](O)CN2C(=O)[C@@H](CC(=O)O)NC(=O)[C@@H](Cc2c[nH]c3ccccc23)NC1=O` [Example 14, cyclo[-D-Asp-Hyp-Asp-D-Leu-Leu-D-Trp-]] (cyclo(D[dL]L[dW][dD][Hyp])), the “Binding Activity on ET Receptor (R. act.) ETA” value in assay [1] amounted to 70. The “Binding Activity on ET Receptor (R. act.) ET8 *1” value in assay [2] is 160. The “Binding Activity on ET Receptor (R. act.) ET8 *2” value in assay [3] came to 120.

Take `CC(C)C[C@@H]1NC(=O)[C@@H](CC(C)C)NC(=O)[C@H](CC(=O)O)NC(=O)[C@@H]2CCCN2C(=O)[C@@H](CC(=O)O)NC(=O)[C@@H](Cc2c[nH]c3ccccc23)NC1=O` [Example 9, cyclo[-D-Asp-Pro-Asp-D-Leu-Leu-D-Trp-]] (cyclo(D[dL]L[dW][dD]P)): the “Binding Activity on ET Receptor (R. act.) ETA” value in assay [1] was 56. Moreover, the “Binding Activity on ET Receptor (R. act.) ET8 *1” value in assay [2] came out at 140. Besides, in assay [3], the “Binding Activity on ET Receptor (R. act.) ET8 *2” value was 67.

Turning to `CC(C)C[C@@H]1NC(=O)[C@@H](CC(C)C)NC(=O)[C@H](CC(=O)O)NC(=O)[C@@H]2CCCCN2C(=O)[C@@H](CC(=O)O)NC(=O)[C@@H](Cc2c[nH]c3ccccc23)NC1=O` [Example 26, Cyclo[--D--Asp--Pip--Asp--D--Leu--Leu--D--Trp--]] (cyclo(D[dL]L[dW][dD][Pip])), the “Binding Activity on ET Receptor (R. act.) ETA” value in assay [1] was 25. Further, in assay [2], the “Binding Activity on ET Receptor (R. act.) ET8 *1” value is on record as 38. The “Binding Activity on ET Receptor (R. act.) ET8 *2” value in assay [3] came out at 73.

`CC(C)C[C@@H]1NC(=O)[C@@H](Cc2ccccc2)NC(=O)[C@H](CC(=O)O)NC(=O)[C@H](Cc2c[nH]c3ccccc23)NC(=O)[C@@H](CC(=O)O)NC(=O)[C@@H](Cc2c[nH]c3ccccc23)NC1=O` [Example 60, Cyclo[--D--Asp--Trp--Asp--D--Phe--Leu--D--Trp--]] (cyclo(D[dF]L[dW][dD]W)): in assay [1], the “Binding Activity on ET Receptor (R. act.) ETA” value is reported as 1. Besides, the “Binding Activity on ET Receptor (R. act.) ET8 *1” value in assay [2] stood at 210. In addition, the “Binding Activity on ET Receptor (R. act.) ET8 *2” value in assay [3] came to 44.

For the compound `CC[C@H](C)[C@H]1NC(=O)[C@H](CC(=O)O)NC(=O)[C@H](Cc2c[nH]c3ccccc23)NC(=O)[C@@H](CC(=O)O)NC(=O)[C@@H](Cc2c[nH]c3ccccc23)NC(=O)[C@H](CC(C)C)NC1=O` [Example 51, Cyclo[--D--Asp--Trp--Asp--D--aIle--Leu--D--Trp--]] (cyclo(D[d(aIle)]L[dW][dD]W)), in assay [1], the “Binding Activity on ET Receptor (R. act.) ETA” value turned out to be 100. The “Binding Activity on ET Receptor (R. act.) ET8 *1” value in assay [2] worked out at 210. Further, the “Binding Activity on ET Receptor (R. act.) ET8 *2” value in assay [3] worked out at 290.
